In BindingDB's records for doi:10.1021/jm701437d (The Institute of Cancer Research, 2008) one finds IC50 data, which are given here for 13 compounds.

Usually IC50 stands for the concentration that inhibits the measured activity by half. High values mean lower potency, low ones higher potency.

Chain of Glycogen synthase kinase-3 beta (P49841 whole entry): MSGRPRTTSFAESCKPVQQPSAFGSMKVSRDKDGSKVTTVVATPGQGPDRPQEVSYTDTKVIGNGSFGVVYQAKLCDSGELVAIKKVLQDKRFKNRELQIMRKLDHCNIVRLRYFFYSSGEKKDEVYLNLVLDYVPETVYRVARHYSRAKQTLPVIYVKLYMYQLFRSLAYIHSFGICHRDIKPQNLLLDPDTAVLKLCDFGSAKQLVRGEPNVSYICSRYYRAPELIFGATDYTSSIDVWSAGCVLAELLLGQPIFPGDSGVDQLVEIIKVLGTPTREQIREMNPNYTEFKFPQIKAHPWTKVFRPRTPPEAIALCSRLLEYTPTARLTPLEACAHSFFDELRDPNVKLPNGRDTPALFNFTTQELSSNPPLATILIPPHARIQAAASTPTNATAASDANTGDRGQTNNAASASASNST

Target in the first assay: not listed separately
Kind of assay: Inhibition of GSK3-beta in human PC3M cells by ELISA.
`NC1CCN(c2ncnc3[nH]ccc23)CC1` came in with an IC50 of 15000 nM.
The same measure, in the same setting: in the case of `NCC1CCN(c2ncnc3n[nH]cc23)CC1` it was more than 30000 nM.
On the same count and under the same terms, in the case of `NC(c1ccccc1)C1CCN(c2ncnc3[nH]ccc23)CC1` (centres undefined) it was more than 30000 nM; in that of `NC(c1ccc(Cl)cc1)C1CCN(c2ccnc3[nH]ccc23)CC1` (centres undefined), 2000 nM.
Still for that read-out and setting: in the case of `NC1CCN(c2ncnc3n[nH]cc23)CC1` it was more than 30000 nM; in that of `NCC1(Cc2ccc(Cl)cc2)CCN(c2ncnc3nc[nH]c23)CC1`, 1700 nM.
`NCC1CCN(c2ncnc3[nH]ccc23)CC1` had an IC50 of 11000 nM.
For `NCC1(c2ccc(Cl)cc2)CCN(c2ncnc3nc[nH]c23)CC1`, the IC50 turned out to be 1300 nM. Against the preceding compound, the IC50 is about 8.5-fold lower.
`NCC1(c2ccc(Cl)cc2)CCN(c2ccnc3[nH]ccc23)CC1` came in with an IC50 of 1400 nM. The IC50 values of the last two compounds are within 1.5-fold of each other.
Still for that read-out and setting: in the case of `NC1(c2ccc(Cl)cc2)CCN(c2ncnc3[nH]ccc23)CC1` it was 600 nM.

A further assay addresses Glycogen synthase kinase-3 beta (Homo sapiens, UniProt P49841). Nature of the assay: Inhibition of GSK3-beta in human PC3M cells by ELISA. (ELISA stands for enzyme-linked immunosorbent assay.)
The compound `NCC1(c2ccc(Cl)cc2)CCN(c2ncnc3[nH]ccc23)CC1` yielded an IC50 of 590 nM.
Still for that read-out and setting: in the case of `NCC1(Cc2ccc(Cl)cc2)CCN(c2ncnc3[nH]ccc23)CC1` it was 1400 nM; in that of `NC(c1ccc(Cl)cc1)C1CCN(c2ccnc3[nH]ccc23)CC1` (centres undefined), 590 nM; in that of `O=c1cc(N2CCOCC2)oc2c(-c3ccccc3)cccc12`, 8100 nM.
